The test system of assay [1] is Amaranth pigweed (PW). Description: Post-emergence herbicide test. In kind it is in vivo, Amaranthus retroflexus. The conditions noted are these: 336 h, 8 lb/acre, two weeks after treatment. The method, boiled down: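 Pot-grown pigweed was sprayed post-emergence at the 1–2 true-leaf stage with compound at rates equivalent to 8 lbs per acre (formulations also prepared for 4 lbs/acre) in 38 gallons per acre, using a hood with fixed nozzle. Plants were sub-irrigated in the greenhouse, and injury or control was rated visually two weeks after treatment.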

Assay [2] relates to Turnip (TP). Description: Post-emergence herbicide test. In kind it is in vivo, Brassica sp. The conditions noted are these: Brassica rapa, post-emergence, 336 h; 8 lb/acre; two weeks after treatment. The method, boiled down: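 A greenhouse post-emergence herbicide test on turnip. Seeds were sown on the surface of potting soil in 3' plastic pots, lightly covered with screened soil and watered from below. Planting was timed so seedlings had 1 or 2 true leaves above the cotyledons at spraying, done in a hood with a fixed nozzle. Control or injury was scored by eye after two weeks.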

Assay [3] has as its system Johnson grass (JG). Description: Pre-emergence herbicide test. In kind it is in vivo, Sorgum helepense. The conditions noted are these: Sorghum halepense, 336 h, 8 lb/acre, two weeks after treatment. The method, boiled down:
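Pots seeded one day before spraying; compound applied pre-emergence at 8 lbs/acre (or 4 lbs/acre) in 38 gallons/acre spray volume. Sub-irrigated in greenhouse; injury/control rated visually two weeks after treatment.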

Assay [4] deals with Cotton (CT). Description: Post-emergence herbicide test. In kind it is in vivo, Gossypium hirsutum var. DPL smooth leaf. The conditions noted are these: Gossypium hirsutum, post-emergence, 336 h; 8 lb/acre; two weeks after treatment. The method, boiled down: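 Cotton (Gossypium hirsutum var. DPL smooth leaf) was grown in 3' plastic pots of potting soil, four seeds per pot, planted at a depth equal to the seed diameter and watered by sub-irrigation. At the stage of expanded cotyledons with the first true leaf 1' long, plants were sprayed post-emergence in a hood with a fixed nozzle over a moving belt. Percent control was rated visually two weeks later.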

Assay [5] has as its system Barnyard grass (BG). Description: Post-emergence herbicide test. The conditions noted are these: Echinochloa crus-galli, 336 h, 8 lb/acre, two weeks after treatment. It is filed as in vivo. The method, boiled down:
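Greenhouse pot-grown barnyard grass seedlings sprayed post-emergence at 8 lbs active compound per acre (some at 4 lbs/acre) in 38 gallons per acre, then sub-irrigated. Injury or control rated visually two weeks after treatment.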

The subject of assay [6] is Crabgrass (CG). Description: Pre-emergence herbicide test. The conditions noted are these: Digitaria sanguinalis, pre-emergence, 336 h; 8 lb/acre; two weeks after treatment. In kind it is in vivo, Digitaria sanquinalis. The method, boiled down:
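Crabgrass (Digitaria sanquinalis) was surface seeded in 3' plastic pots of potting soil, covered with screened soil, and watered by sub-irrigation in greenhouse trays. Pots were seeded one day before spraying in a hood with a moving belt and fixed nozzle. Plants stayed in the greenhouse on sub-irrigation, and pre-emergence control was rated visually two weeks after treatment.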

In assay [7] the test system is Crabgrass (CG). The assay can be described thus: Post-emergence herbicide test. It is filed as in vivo, Digitaria sanquinalis. The conditions noted are these: Digitaria sanguinalis, post-emergence, 336 h; 8 lb/acre; two weeks after treatment. The method, boiled down: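 Crabgrass (Digitaria sanquinalis) was surface seeded individually in 3' plastic pots of potting soil, covered with screened soil, and watered by sub-irrigation in greenhouse trays. Planting was staggered so seedlings reached the target stage together. Post-emergence sprays were applied in a hood with a removable belt and fixed nozzle, and control was visually rated two weeks after treatment.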

Assay [8] deals with Bean (BN). The assay can be described thus: Post-emergence herbicide test. It is filed as in vivo, Phaseolus vulgaris var. Black Valentine. The conditions noted are these: Phaseolus vulgaris, post-emergence, 336 h; 8 lb/acre; two weeks after treatment. The method, boiled down: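 Snapbean (Phaseolus vulgaris var. Black Valentine) was tested post-emergence. Four seeds were sown in 3' plastic pots of potting soil at a depth equal to the seed diameter, then sub-irrigated in greenhouse trays. Planting dates were staggered so plants were sprayed once primary leaves had expanded, with the growing point at the primary leaf nodes.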

Assay [9] deals with Cotton (CT). The assay can be described thus: Pre-emergence herbicide test. In kind it is in vivo, Gossypium hirsutum var. DPL smooth leaf. The conditions noted are these: Gossypium hirsutum, 336 h, 8 lb/acre, two weeks after treatment. The method, boiled down: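 Crop and weed species seeded one day before treatment, then sprayed pre-emergence at 8 lbs actual compound per acre (also 4 lbs/acre formulations) in 38 gallons per acre. Pots kept in greenhouse with sub-irrigation only; injury or control visually rated two weeks after treatment.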

For assay [10], the system named is variety of crops and weed species. The assay can be described thus: Pre- and post-emergence herbicide tests, overall assessment of Tables III-VI. In kind it is in vivo. The conditions noted are these: data of Tables III-VI. How it is done:
All crop and weed species were planted individually in 3' plastic pots containing potting soil. Four seeds each of corn, cotton, and snapbeans were seeded to a depth equal to the diameter of the seed. All other species were surface seeded and sprinkled with screened soil in an amount sufficient to cover the seed. Immediately after planting, all pots were watered by sub-irrigation in greenhouse trays. Pots for the pre-emergence phase were seeded one day before treatment.
Compounds were tested at rates of application equivalent to 8 lbs. of actual compound per acre in a spray volume of 38 gallons per acre. Spray hood constants required to deliver the above volume are as follows:
Two weeks after treatment, pre- and post-emergence injury or control was visually rated, and the results were as shown in the following tables. Pre-emergence data are provided in TABLE III and post-emergence data are provided in TABLE IV, for compounds having the formula illustrated in TABLE I. Correspondingly, pre-emergence and post-emergence data, respectively, are set forth in TABLES V AND VI, for compounds having the formula illustrated in TABLE II.

Assay [11] deals with Corn (CN). Description: Post-emergence herbicide test. The conditions noted are these: Zea mays, 336 h, 8 lb/acre, two weeks after treatment. It is filed as in vivo. The method, boiled down:
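Greenhouse seedlings grown in potting soil and sprayed post-emergence at 8 lbs compound/acre (formulations also made for 4 lbs/acre) in 38 gallons/acre spray volume. Watering by sub-irrigation only. Injury or control rated visually two weeks after treatment.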

Assay [12] relates to Johnson grass (JG). The assay can be described thus: Post-emergence herbicide test. In kind it is in vivo, Sorgum helepense. The conditions noted are these: Sorghum halepense, 336 h, 8 lb/acre, two weeks after treatment. The method, boiled down: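 Greenhouse pot-grown seedlings sprayed post-emergence at 8 lbs compound per acre (some at 4 lbs/acre) in 38 gallons per acre spray volume. Sub-irrigated thereafter. Injury/control rated visually two weeks after treatment.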

In assay [13] the test system is Turnip (TP). Description: Pre-emergence herbicide test. In kind it is in vivo, Brassica sp. The conditions noted are these: Brassica rapa, pre-emergence, 336 h; 8 lb/acre; two weeks after treatment. The method, boiled down: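 Turnip (Brassica sp.) seeds were surface sown in 3' plastic pots of potting soil, covered with a thin layer of screened soil, and sub-irrigated in greenhouse trays. Pots were seeded one day ahead of treatment, sprayed pre-emergence under a hood with a fixed nozzle and moving belt, then kept in the greenhouse.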

For assay [14], the system named is Amaranth pigweed (PW). Description: Pre-emergence herbicide test. The conditions noted are these: 336 h, 8 lb/acre, two weeks after treatment. In kind it is in vivo, Amaranthus retroflexus. The method, boiled down:
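Pigweed was surface-seeded in potted soil one day before spraying at 8 lbs compound per acre, or 4 lbs/acre, in 38 gallons per acre. Pots were kept in the greenhouse with sub-irrigation only; injury or control was rated visually two weeks after treatment.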

Assay [15] deals with Corn (CN). The assay can be described thus: Pre-emergence herbicide test. It is filed as in vivo. The conditions noted are these: Zea mays, 336 h, 8 lb/acre, two weeks after treatment. The method, boiled down: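 Four corn seeds per pot, sown at seed-diameter depth one day before spraying, got soil surface treatment at 8 lbs/acre (4 lbs/acre formulations also prepared) in 38 gallons/acre. Pots were greenhouse-held with sub-irrigation only. Injury or control was scored visually two weeks after treatment.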

Assay [16] concerns Bean (BN). Description: Pre-emergence herbicide test. In kind it is in vivo, Phaseolus vulgaris var. Black Valentine. The conditions noted are these: Phaseolus vulgaris, 336 h, 8 lb/acre, two weeks after treatment. The method, boiled down: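 Black Valentine bean was seeded in potting soil one day before spraying. Compound was applied pre-emergence at 8 lbs/acre (also 4 lbs/acre) in 38 gallons per acre. Plants were sub-irrigated and injury or control was rated visually after two weeks.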

The subject of assay [17] is Barnyard grass (BG). Description: Pre-emergence herbicide test. In kind it is in vivo. The conditions noted are these: Echinochloa crus-galli, 336 h, 8 lb/acre, two weeks after treatment. The method, boiled down:
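Barnyard grass surface-seeded in potting soil and sprayed pre-emergence one day after seeding, at 8 or 4 lb compound/acre in 38 gal/acre spray volume. Pots kept in greenhouse with sub-irrigation only; injury or control rated visually two weeks after treatment.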

Assay [18] has as its system Yellow foxtail grass (YF). Description: Pre-emergence herbicide test. It is filed as in vivo, Setaria glauca. The conditions noted are these: Setaria, 336 h, 8 lb/acre, two weeks after treatment. The method, boiled down:
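Seeds surface-sown in potting soil one day before spraying; compounds applied pre-emergence at 8 or 4 lbs/acre in 38 gallons/acre spray. Pots held in greenhouse with sub-irrigation only. Injury or control rated visually two weeks after treatment.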

Assay [19] concerns Yellow foxtail grass (YF). Description: Post-emergence herbicide test. It is filed as in vivo, Setaria glauca. The conditions noted are these: Setaria, 336 h, 8 lb/acre, two weeks after treatment. The method, boiled down: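 Potted seedlings grown in greenhouse, planting staggered to reach the target stage together, then sprayed post-emergence at 8 lbs actual compound/acre in 38 gallons/acre (4 lbs/acre formulations also prepared). Sub-irrigated afterwards. Injury or control rated visually two weeks after treatment.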

One may read the pest or weed control as the degree to which the test organism was suppressed or injured, in per cent. Higher therefore signals strong suppression.

On to `CCc1nnc(NC(=O)N(C)C)s1` [Example 20], for which the pest or weed control at 8966.8 g/ha is 100% in [1]; 90% in assay [2]; 70% in assay [3]; 80% in [4]; 20% in [5]; 90% in assay [6]. Further, the pest or weed control at 8966.8 g/ha came to 20% in [7]; 50% in [8]; 30% in [9]; 30% in [11]; 20% in [12]; 100% in [13]. The figures for the pest or weed control at 8966.8 g/ha in assay [14], in assay [15] and in assay [16] were 90%, 30% and 10%, respectively. In assay [10], the “herbicidal effectiveness / selectivity, in words” value is given as “more selective when applied to a certain crop or weed species”.
For `CNC(=O)Nc1nnc(CC(C)C)s1` [Example 21], the pest or weed control at 8966.8 g/ha in assay [1] was 20%; in assay [2], 20%; in assay [3] it was 10%; in [4], 50%; in [5], 20%; in assay [6] it was 20%. For the same molecule, the pest or weed control at 8966.8 g/ha came to 30% in assay [7]; 10% in assay [17]; 60% in assay [8]; 10% in assay [9]; 20% in [11]; 30% in assay [12]. Also, the pest or weed control at 8966.8 g/ha in assay [13] is 20%; in assay [14], 60%; in assay [15], 10%; in assay [16], 100%. Also, the “herbicidal effectiveness / selectivity, in words” value in assay [10] was “more selective when applied to a certain crop or weed species”.
In the case of `CCSc1nnc(NC(=O)NC)s1` [Example 32], the pest or weed control at 8966.8 g/ha came out at 100% in assay [1]; 90% in assay [2]; 70% in assay [3]; 100% in [4]; 100% in assay [5]; 90% in [6]. The pest or weed control at 8966.8 g/ha in assay [7] came out at 100%; in [17], 90%; in [8], 100%; in [9], 50%; in [11], 60%; in assay [12] it was 90%. Moreover, the pest or weed control at 8966.8 g/ha in assay [13] stood at 90%; in [14], 100%; in assay [15], 70%; in assay [18] it was 90%; in [16], 80%; in [19], 90%.

The values above are taken from patent US4175081A, “5-Substituted thiadiazole ureas” (priority 1977, dated 1979).
